Data: patent publication US6503492B2, “Antiperspirant or deodorant compositions” (priority 2001, dated 2003)
Several values for one entry are separate records, joined by “and”; a condition that tells them apart may be missing. Equal values may be shown once.

How the values were obtained:
histamine-induced itch [1] = experiment: Histamine-induced itch, test material topically applied in Aqueous Cream BP (histamine iontophoresis, VAS); conditions: for Itch score % of control: versus vehicle alone; for Itch score (area under the curve): VAS area 0 to 5 min
histamine-induced itch [2] = experiment: Histamine-induced itch, test material topically applied in ethanol:Vaseline Intensive Care Lotion; type: in vivo, human; conditions: for Anti-pruritic action (in words): comparison N-acyl ethanolamides in ethanol:VICL lotion; for Itch score % of control: comparison N-acyl ethanolamides, 50 mM in ethanol, in ethanol:VICL lotion, versus vehicle alone of the same run
Method: This mixture was applied (250 μl/5 cm^2-5 times at 1 h intervals) and histamine iontophoresis was performed on the treated site in the method described in Example 2. The vehicle control was ethanol:VICL (volume ratio 1:1).
Related molecules stearylethanolamine (SEA; 50 mM in ethanol) and linoleoylethanolamine (LAMEA; 50 mM in ethanol) were tested as potential activating agents for a CBR, employing the test method described in Example 3 and applied in the ethanol:VICL lotion.

[3] = system: skin organotypic cultures (Epiderm™); experiment: Skin organotypic culture: antiperspirant (APF1)-induced IL-6 release, ELISA; conditions: for IL-6 pg/ml ± SD: APF1 topically, 24h
[4] = system: antiperspirant-induced irritation; experiment: Antiperspirant-induced irritation in vivo, 47 h Finn chamber patch test, erythema grading; design: species or system human
Method: In this Example, patch tests were performed on a mixed panel of 49 volunteers with age ranges between 18 and 55, using a double-blind protocol with randomized patch sites. Samples (20 mg) were applied to a filter paper that was placed within a Finn chamber (0.8 cm internal diameter). The chambers were then attached to the volar forearm using Scanpore™ tape (Norgesplater, Nor.) and left for 47 h. At the end of the 47 h period, the patches were removed and the site was left open for 5 h when the erythema associated with the patch was visually assessed and scored using an in-house standard assessment Patch Grading Scale as set out below.

histamine-induced itch [5] = experiment: Histamine-induced itch, test material applied under water-impermeable patch for 24 hours; conditions: PEA 100 mM under patch
[6] = AEA 5% (w/v) in Aqueous Cream BP

Compound: CCCCCCC(C)(C)c1cc(O)c2c(c1)OC(C)(C)[C@@H]1CC=C(CO)C[C@@H]21 [HU-210, (6aR)-trans-3-(1,1-Dimethylheptyl)-6a,7,10,10a-tetrahydro-1-hydroxy-6,6-dimethyl-6H-dibenzo[b,d]pyran-9-methanol]
- Itch score % of control (histamine-induced itch [1]; HU-210 0.05% (w/v) in Aqueous Cream BP): 7.3 % of control
- Itch score (area under the curve) (histamine-induced itch [1]; HU-210 0.05% (w/v) in Aqueous Cream BP, volar forearm, after 4 hours): 101
- Itch score % of control (histamine-induced itch [1]; HU-210 0.5% (w/v) in Aqueous Cream BP): 6.2 % of control
- Itch score (area under the curve) (histamine-induced itch [1]; HU-210 0.5% (w/v) in Aqueous Cream BP, volar forearm, after 4 hours): 119
- Effect on histamine-induced itch (in words) (histamine-induced itch [1]; HU-210 topically applied in Aqueous Cream BP): capable of reducing histamine-induced itch

Compound: CCCCC/C=C\C/C=C\C/C=C\C/C=C\CCCC(=O)NCCO [AEA, (all Z)-N-(2-Hydroxyethyl)-5,8,11,14-eicosatetraenamide]
- Itch score (area under the curve) (histamine-induced itch [1]; [6]): 1322
- Itch score % of control (histamine-induced itch [1]; [6]): 76 % of control
- Effect on histamine-induced itch (in words) (histamine-induced itch [1]; anandamide topically applied): inhibitor of histamine-induced itch

Compound: CCCCCCCCCCCCCCCCCC(=O)NCCO [SEA, stearylethanolamine]
- Anti-pruritic action (in words) (histamine-induced itch [2]): unable to demonstrate any anti-pruritic action or even appeared to exacerbate the itch response
- Itch score % of control (histamine-induced itch [2]): 231 % of control and 260 % of control and 190 % of control

Compound: CCCCCCCCCCCCCCCC(=O)NCCO [PEA, Palmitoylethanolamide]
- Effect on histamine-induced itch (in words) (histamine-induced itch [2]; PEA topically applied in the presence of a lotion): can inhibit histamine-induced itch
- IL-6 pg/ml ± SD ([3]; PEA 0.1 μM in the medium): 38.3 ± 7.6 pg/mL
- IL-6 pg/ml ± SD ([3]; PEA 1.0 μM in the medium): 36.5 ± 11.6 pg/mL
- IL-6 pg/ml ± SD ([3]; PEA 10.0 μM in the medium): 59.5 ± 13.8 pg/mL
- IL-6 pg/ml ± SD ([3]; PEA 100.0 μM in the medium): 43.0 ± 7.9 pg/mL
- IL-6 pg/ml ± SD ([3]; PEA 1000.0 μM in the medium): 63.0 ± 24.8 pg/mL
- AP-induced IL-6 release (in words) ([3]; PEA at all concentrations used, Dunnet's test p<0.05): significantly decrease AP-induced IL-6 release
- Irritation induced by APF1 (in words) ([4]; 0.25% palmitoylethanolamide in APF1, Wilcoxon signed rank test, significance level 5%): reduced significantly
- Mean Irritation Score ([4]; APF1 with 0.25% PEA, 20 mg in Finn chamber 47 h, scored 5 h after removal, Patch Grading Scale 0-4, 49 volunteers): 0.54
- Effect on histamine-induced itch (in words) (histamine-induced itch [5]): can inhibit histamine-induced itch

Compound: CCCCC/C=C\C/C=C\CCCCCCCC(=O)NCCO [LAMEA, linoleoylethanolamine]
- Anti-pruritic action (in words) (histamine-induced itch [2]): unable to demonstrate any anti-pruritic action or even appeared to exacerbate the itch response
- Itch score % of control (histamine-induced itch [2]): 169 % of control and 108 % of control and 100 % of control
